This is an account of results in ChEMBL document CHEMBL1201862, “PubChem BioAssay data set” (2004).

Active and inactive are the calls of the source.

One assay addresses T1, fMet-Leu-Phe receptor (Homo sapiens, UniProt P21462).
T1 sequence (P21462 whole entry): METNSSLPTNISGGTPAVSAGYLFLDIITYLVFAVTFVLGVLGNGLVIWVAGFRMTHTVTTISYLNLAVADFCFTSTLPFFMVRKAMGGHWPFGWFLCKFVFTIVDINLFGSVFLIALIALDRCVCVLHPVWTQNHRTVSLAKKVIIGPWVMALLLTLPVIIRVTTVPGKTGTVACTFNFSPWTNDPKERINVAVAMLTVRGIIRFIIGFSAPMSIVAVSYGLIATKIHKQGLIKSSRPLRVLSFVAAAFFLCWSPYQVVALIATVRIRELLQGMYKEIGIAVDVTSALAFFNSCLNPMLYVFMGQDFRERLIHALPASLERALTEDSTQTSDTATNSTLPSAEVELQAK
As to the kind of experiment: formyl peptide receptor binders – dose response (AID 519). It is filed as functional.

The nature of assay [1]: Luminescence Cell-Based Dose Retest to Confirm Inhibitors of Cancer Stem Cells. [Related pubchem assays (depositor defined):AID2717, AID2721]. It is filed as functional. As to conditions: Homo sapiens.
The target of assay [2] is T2, Mannose-6-phosphate isomerase (Homo sapiens, UniProt P34949).
T2 sequence (P34949 whole entry): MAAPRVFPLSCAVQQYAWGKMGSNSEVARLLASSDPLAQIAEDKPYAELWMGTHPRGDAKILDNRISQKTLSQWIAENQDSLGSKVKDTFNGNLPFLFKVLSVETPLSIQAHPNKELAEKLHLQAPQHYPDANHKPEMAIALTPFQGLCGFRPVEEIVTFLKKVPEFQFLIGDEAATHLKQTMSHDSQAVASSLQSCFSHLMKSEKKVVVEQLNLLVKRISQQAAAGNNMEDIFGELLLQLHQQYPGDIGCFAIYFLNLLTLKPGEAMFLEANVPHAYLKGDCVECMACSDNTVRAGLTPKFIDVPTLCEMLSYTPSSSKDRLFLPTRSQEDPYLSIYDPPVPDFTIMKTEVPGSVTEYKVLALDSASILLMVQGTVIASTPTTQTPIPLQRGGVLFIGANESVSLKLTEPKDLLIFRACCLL
The assay is described as follows: MPI inhibition at elevated mannose 6-phosphate – biochemical, fluorescence intensity, high mannose 6-phosphate, primary screen (AID 1220).

Assay [3] addresses Mitogen-activated protein kinase 10 (Homo sapiens, UniProt P53779). As to the kind of experiment: Dose response biochemical screening assay for inhibitors of c-Jun N-Terminal Kinase 3 (JNK3). [Related pubchem assays: 746 ].
Assay [4] is described as follows: microbe, parasite or virus in culture. It is filed as functional. As to conditions: Mycobacterium tuberculosis.
Assay [5] can be described thus: fluconazole-exposed Candida albicans growth modulators – fluorescence, retest, confirmation (AID 2467). It is filed as functional, cell-based.
A short description of assay [6]: NIH-3T3 fibroblast cytotoxicity, dose response, cytotoxicity control, cell-based, fluorescence, Alamar Blue, secondary assay (AID 2327).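 Also: NIH-3T3 mouse fibroblasts cultured with fluconazole at 8 µg/mL.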 It is filed as functional. Background: Alamar Blue is a resazurin reagent that responds to reducing activity.
The next assay deals with INS1. The assay is described as follows: INS-1E survival protection against cytokine death – cell-based, luminescence, retest, dose response (AID 449756).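 Also: cell death triggered by IL-1 beta plus TNF-alpha plus IFN-gamma mixture; protective hits raise ATP signal compared with cytokine alone wells.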 It is filed as functional. As to conditions: Rattus norvegicus.
The nature of assay [7]: HepG2 cell cytotoxicity, dose response, cytotoxicity control for non-replicating M. tuberculosis project (AID 489018). It is filed as functional. As to conditions: Mycobacterium tuberculosis.
The nature of assay [8]: Vero E6 cell cytotoxicity, dose response, cytotoxicity control for non-replicating M. tuberculosis project, secondary assay (AID 492998). It is filed as functional, VeroE6. The following applies: Vero C1008.
A further assay is described as follows: cells. It is filed as functional.
The nature of assay [9]: THP-1 cell cytotoxicity, dose response, cytotoxicity control for non-replicating M. tuberculosis project (AID 489025). It is filed as functional.
The nature of assay [10]: Potency on glucagon-like peptide 1 release, dose-response in NCI-H716 cell line, half maximal inhibitory concentration (AID 1117344). It is filed as functional, cell-based.
Assay [11] can be described thus: cytotoxicity toward Colo320 cells – cell-based, CellTiter-Glo luminescence, IC50, dose response (AID 1117334). It is filed as functional. As to conditions: COLO 320.
Assay [12] is described as follows: Reduced DLD-1 viability, concentration-response, CellTiter-Glo luminescence (AID 1117352). It is filed as functional.
Assay [13] can be described thus: SNU-C1 cell viability reduction, dose response, CellTiter-Glo luminescence (AID 1117323). It is filed as functional, cell-based. (In general: Cellular ATP, detected with luciferase, serves as a proxy for viable cell number.)
Assay [14] can be described thus: cytotoxicity toward HT-29 cells – cell-based, CellTiter-Glo luminescence, IC50, dose response (AID 1117330). It is filed as functional.
A short description of assay [15]: RKO cell viability reduction, dose response, CellTiter-Glo luminescence (AID 1117322). It is filed as functional.
Assay [16] can be described thus: glucagon-like peptide-1 release potency in STC-1, concentration-response, half-maximal inhibitory concentration in the STC-1 line (AID 1117345). It is filed as functional, cell-based.
A short description of assay [17]: cytotoxicity toward HCT116 cells – cell-based, CellTiter-Glo luminescence, IC50, dose response (AID 1117332). It is filed as functional. As to conditions: HCT-116.

Sequence of Mitogen-activated protein kinase 10 (P53779 whole entry): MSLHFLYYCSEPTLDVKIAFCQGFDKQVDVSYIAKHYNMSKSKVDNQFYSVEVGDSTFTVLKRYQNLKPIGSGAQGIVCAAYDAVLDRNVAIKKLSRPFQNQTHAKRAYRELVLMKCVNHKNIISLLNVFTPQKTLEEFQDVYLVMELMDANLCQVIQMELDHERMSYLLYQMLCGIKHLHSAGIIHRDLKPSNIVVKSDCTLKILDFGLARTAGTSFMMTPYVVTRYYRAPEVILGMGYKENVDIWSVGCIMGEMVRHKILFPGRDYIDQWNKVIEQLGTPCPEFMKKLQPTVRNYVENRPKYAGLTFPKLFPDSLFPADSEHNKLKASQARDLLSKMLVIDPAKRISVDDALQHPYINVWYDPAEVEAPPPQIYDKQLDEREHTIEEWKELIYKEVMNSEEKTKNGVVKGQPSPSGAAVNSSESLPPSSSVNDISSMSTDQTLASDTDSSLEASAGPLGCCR

One may read the Ki as a dissociation constant, usually derived from enzyme kinetics or from competition with a known ligand. As a reminder, the AC50 is the concentration at which the activity in the assay is half-maximal. In general, IC50 refers to the midpoint of a concentration-inhibition curve. In the case of `O=C(NCCN1CCOCC1)NC1(C(F)(F)F)Oc2ccc(Cl)cc2O1` (configuration not stated), the Ki at fMet-Leu-Phe receptor is > 66.7 µM (inactive). Besides, the AC50 in [1] is 7.37 µM (active). In assay [2], the IC50 is > 50 µM (not active).
On to `N#CCCC12CCCCC1=Nc1ccccc12` (configuration not stated), for which, in assay [3], the IC50 was > 93.1 µM (not active).
Same read-out and setting: next, `Cc1ccccc1Nc1nn2c(=O)c3ccccc3nc2s1`: 39.3 µM (not active).
In general, EC50 refers to the concentration at which the effect is half-maximal. Turning to `CCOC(=O)N1CCN(Cc2cc(Cl)c3cccnc3c2O)CC1`, the CC50 in assay [4] is 4.95 µM (active); in [7], 11 µM (active); in [8], 2.64 µM (active); in assay [9] it was 4.35 µM (active). The values for the EC50 in assay [5] and in [6] were 1.28 µM (active) and > 150 µM (inactive), respectively. For the same compound, the AC50 in the assay on INS1 is 3.13 µM (active). The IC50 is 11.8 µM (active) in [2] and 10.9 µM (active) in “cells”.
As for `OC1(c2ccc(Cl)c(C(F)(F)F)c2)CCN(CCCC(c2ccc(F)cc2)c2ccc(F)cc2)CC1` [PENFLURIDOL], the IC50 in assay [10] is 8.45 µM (inactive); in [11], 0.962 µM (active); in [12] it was 1.14 µM (active); in assay [13] it was 0.168 µM (active); in [14], 0.946 µM (active); in [15], 0.971 µM (active). Further, the IC50 was > 40 µM (inactive) in assay [16] and 1.85 µM (active) in [17].
